Experimental data taken from patent US12479827B2, “Heteroaromatic carboxamide derivatives as plasma kallikrein inhibitors” (Boehringer Ingelheim International GmbH, priority 2020, dated 2025).

How the values were obtained:
[1] = biological target: T1, Human PKK (Homo sapiens, UniProt P03952); assay: Inhibition of PKK using an endpoint assay (human PKK); assay type: biochemical; conditions: fluorogenic substrate H-Pro-Phe-Arg-AMC, 1 h room temperature, method names human or rat PKK, table does not say which
T1 construct: purchased Enzyme Research Laboratories
In short: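 Endpoint fluorescence (ex 355 nm, em 460 nm) after stopping with 1 μM final PPACK II. Buffer: Tris 100 mM pH 7.8, NaCl 150 mM, BSA 0.1%, Tween20 0.05%, with 1% DMSO present; enzyme is human plasma kallikrein.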

[2] = biological target: T2, PKK in kaolin activated human platelet poor plasma (Homo sapiens, UniProt P03952); assay: Inhibition of PKK in kaolin activated human PPP; assay type: biochemical; conditions: 25-750 μg/mL kaolin, global fit, text b200 calls the values IC90;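 also: readout is the rate of fluorogenic substrate cleavage in rfu per min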
T2 construct: Platelet poor plasma (PPP) obtained from human wholeblood; from tissue
Description: Platelet poor plasma (PPP) obtained from human wholeblood, anticoagulated with Na-Citrate, is incubated with various concentrations of the test compound together with either 25, 75, 250, or 750 μg/mL kaolin in assay buffer for 20 min at 37° C. such that for each kaolin dose used a concentration response is obtained for the test compound.

T1 sequence (P03952 20-390 limits assumed): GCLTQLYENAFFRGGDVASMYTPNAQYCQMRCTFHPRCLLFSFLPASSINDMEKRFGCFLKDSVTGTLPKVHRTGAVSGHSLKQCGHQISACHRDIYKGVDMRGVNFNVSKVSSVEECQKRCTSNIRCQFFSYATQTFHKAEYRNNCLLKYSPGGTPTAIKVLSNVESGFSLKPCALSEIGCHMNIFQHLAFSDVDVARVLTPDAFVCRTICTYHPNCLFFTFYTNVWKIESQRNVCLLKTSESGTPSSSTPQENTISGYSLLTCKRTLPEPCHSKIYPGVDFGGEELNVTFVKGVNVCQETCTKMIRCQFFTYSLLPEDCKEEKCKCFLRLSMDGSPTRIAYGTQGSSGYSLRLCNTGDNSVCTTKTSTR
T1 sequence (P03952 391-638 limits assumed): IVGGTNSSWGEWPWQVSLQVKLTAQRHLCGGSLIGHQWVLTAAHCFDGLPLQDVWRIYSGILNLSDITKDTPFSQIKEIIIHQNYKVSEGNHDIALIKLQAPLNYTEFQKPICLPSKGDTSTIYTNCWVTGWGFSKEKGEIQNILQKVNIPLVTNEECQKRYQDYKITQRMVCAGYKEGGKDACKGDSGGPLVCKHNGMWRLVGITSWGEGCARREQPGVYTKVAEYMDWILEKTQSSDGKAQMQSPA
T2 sequence (P03952 391-638 limits assumed): as above
T2 sequence (P03952 20-390 limits assumed): as the sequence (P03952 20-390 limits assumed) above

SMILES	IC50 [1] [µM]	IC50 [2] [µM]
Cn1cnc2c1CC[C@H]2NC(=O)c1cn(Cc2ccc(N3CC4CC4C3)nc2CO)nn1 (stereo partly drawn) [Example 91, 1-[(6-{3-Azabicyclo[3.1.0]hexan-3-yl}-2-(hydroxymethyl)-pyridin-3-yl)methyl]-N-[(4R)-1-methyl-1H,4H,5H,6H-cyclo-penta[d]imidazol-4-yl]-1H-1,2,3-triazole-4-carboxamide]	0.0021	0.439
COCc1nc(N2CC3CC3C2)ccc1Cn1cc(C(=O)N[C@@H]2CCc3c2ncn3C)nn1 (stereo partly drawn) [Example 92, 1-[(6-{3-Azabicyclo[3.1.0]hexan-3-yl}-2-(methoxymethyl)-pyridin-3-yl)methyl]-N-[(4R)-1-methyl-1H,4H,5H,6H-cyclo-penta[d]imidazol-4-yl]-1H-1,2,3-triazole-4-carboxamide]	0.0028	0.307
Cn1cnc2c1CC[C@H]2NC(=O)c1cnn(Cc2ccc(N3CC4C(C3)C4(F)F)nc2CO)c1 (stereo partly drawn) [Example 93, 1-[(6-{6,6-Difluoro-3-azabicyclo[3.1.0]hexan-3-yl}-2-(hydroxymethyl)pyridin-3-yl)methyl]-N-[(4R)-1-methyl-1H,4H,5H,6H-cyclopenta-[d]imidazol-4-yl]-1H-pyrazole-4-carboxamide]	0.0014	0.11
Cc1nc(N2CC3C(C2)C3(F)F)cnc1Cn1cc(C(=O)N[C@@H]2CCc3c2ncn3C)nn1 (stereo partly drawn) [Example 94, 1-[(5-{6,6-Difluoro-3-azabicyclo[3.1.0]hexan-3-yl}-3-methylpyrazin-2-yl)methyl]-N-[(4R)-1-methyl-1H,4H,5H,6H-cyclopenta[d]imidazol-4-yl]-1H-1,2,3-triazole-4-carboxamide]	0.0108	1.76
COCc1nc(N2CC3C(C2)C3(F)F)ccc1Cn1cnc(C(=O)N[C@@H]2CCc3c2ncn3C)c1 (stereo partly drawn) [Example 95, 1-[(6-{6,6-Difluoro-3-azabicyclo[3.1.0]hexan-3-yl}-2-(methoxymethyl)pyridin-3-yl)methyl]-N-[(4R)-1-methyl-1H,4H,5H,6H-cyclopenta-[d]imidazol-4-yl]-1H-imidazole-4-carboxamide]	0.0055	0.577
Cn1cnc2c1CC[C@H]2NC(=O)c1cn(Cc2ccc(N3CC4C(C3)C4(F)F)nc2CO)cn1 (some centres unmarked) [Example 96]	0.0015	0.134
COc1nc(N2CC3C(C2)C3(F)F)ccc1Cn1cnc(C(=O)N[C@@H]2CCc3c2ncn3C)c1 (stereo partly drawn) [Example 97, 1-[(6-{6,6-Difluoro-3-azabicyclo[3.1.0]hexan-3-yl}-2-methoxypyridin-3-yl)methyl]-N-[(4R)-1-methyl-1H,4H,5H,6H-cyclopenta[d]imidazol-4-yl]-1H-imidazole-4-carboxamide]	0.0014	0.766
Cn1cnc2c1CC[C@H]2NC(=O)c1cn(Cc2ccc(N3CC4CC4C3)nc2CO)cn1 (stereo partly drawn) [Example 98, 1-[(6-{3-Azabicyclo[3.1.0]hexan-3-yl}-2-(hydroxymethyl)pyridin-3-yl)methyl]-N-[(4R)-1-methyl-1H,4H,5H,6H-cyclopenta[d]imidazol-4-yl]-1H-imidazole-4-carboxamide]	0.0015	0.282
Cn1cnc2c1CC[C@H]2NC(=O)c1cnn(Cc2cnc(N3CC4CC4C3)cc2Cl)c1 (stereo partly drawn) [Example 99, 1-[(6-{3-Azabicyclo[3.1.0]hexan-3-yl}-4-chloropyridin-3-yl)methyl]-N-[(4R)-1-methyl-1H,4H,5H,6H-cyclopenta[d]imidazol-4-yl]-1H-pyrazole-4-carboxamide]	0.0037	2.17
CCc1nc(N2CC3CC3C2)ccc1Cn1cc(C(=O)N[C@@H]2CCc3c2ncn3C)nn1 (stereo partly drawn) [Example 101, 1-[(6-{3-Azabicyclo[3.1.0]hexan-3-yl}-2-ethylpyridin-3-yl)methyl]-N-[(4R)-1-methyl-1H,4H,5H,6H-cyclopenta[d]imidazol-4-yl]-1H-1,2,3-triazole-4-carboxamide]	0.0006	0.297
